Source: ChEMBL document CHEMBL5380795, “Design, Synthesis, and Bioactivity Investigation of Cyclic Lipopeptide Antibiotics Containing Eight to Nine Amino Acids” (J Med Chem, 2023)
In brackets after ≈: the same amount, converted by molar mass.

What was measured:
Staphylococcus aureus [1] = assay: Antibacterial activity against methicillin resistant Staphylococcus aureus ATCC 33591 assessed as inhibition of bacterial growth incubated for 18 to 24 hrs by broth microdilution method; type: functional; settings: time 18-24 hrs
Staphylococcus aureus [2] = assay: Antibacterial activity against Staphylococcus aureus ATCC 29213 assessed as inhibition of bacterial growth incubated for 18 to 24 hrs by broth microdilution method; type: functional; settings: time 18-24 hrs
[3] = tested on: Staphylococcus epidermidis; assay: Antibacterial activity against methicillin resistant Staphylococcus epidermidis clinical isolate 19-5 assessed as inhibition of bacterial growth incubated for 18 to 24 hrs by broth microdilution method; type: functional; settings: time 18-24 hrs
[4] = tested on: Staphylococcus epidermidis; assay: Antibacterial activity against methicillin resistant Staphylococcus epidermidis clinical isolate 19-6 assessed as inhibition of bacterial growth incubated for 18 to 24 hrs by broth microdilution method; type: functional; settings: time 18-24 hrs
Escherichia coli [5] = assay: Antibacterial activity against Escherichia coli ATCC BAA-2523 assessed as inhibition of bacterial growth incubated for 18 to 24 hrs by broth microdilution method; type: functional; settings: time 18-24 hrs
Escherichia coli [6] = assay: Antibacterial activity against Escherichia coli NCTC 13353 assessed as inhibition of bacterial growth incubated for 18 to 24 hrs by broth microdilution method; type: functional; settings: time 18-24 hrs
Escherichia coli [7] = assay: Antibacterial activity against Escherichia coli clinical isolate 19-2 assessed as inhibition of bacterial growth incubated for 18 to 24 hrs by broth microdilution method; type: functional; settings: time 18-24 hrs
Escherichia coli [8] = assay: Antibacterial activity against KPC producing Escherichia coli ATCC BAA-2340 assessed as inhibition of bacterial growth incubated for 18 to 24 hrs by broth microdilution method; type: functional; settings: time 18-24 hrs
Klebsiella pneumoniae [9] = assay: Antibacterial activity against carbapenem resistant Klebsiella pneumoniae clinical isolate 19-15 assessed as inhibition of bacterial growth incubated for 18 to 24 hrs by broth microdilution method; type: functional; settings: time 18-24 hrs
Klebsiella pneumoniae [10] = assay: Antibacterial activity against carbapenem resistant Klebsiella pneumoniae clinical isolate 19-17 assessed as inhibition of bacterial growth incubated for 18 to 24 hrs by broth microdilution method; type: functional; settings: time 18-24 hrs
Klebsiella pneumoniae [11] = assay: Antibacterial activity against KPC producing Klebsiella pneumoniae ATCC BAA-1705 assessed as inhibition of bacterial growth incubated for 18 to 24 hrs by broth microdilution method; type: functional; settings: time 18-24 hrs
Pseudomonas aeruginosa [12] = assay: Antibacterial activity against Pseudomonas aeruginosa clinical isolate 19-1 assessed as inhibition of bacterial growth incubated for 18 to 24 hrs by broth microdilution method; type: functional; settings: time 18-24 hrs
Pseudomonas aeruginosa [13] = assay: Antibacterial activity against carbapenem resistant Pseudomonas aeruginosa clinical isolate 19-3 assessed as inhibition of bacterial growth incubated for 18 to 24 hrs by broth microdilution method; type: functional; settings: time 18-24 hrs
Pseudomonas aeruginosa [14] = assay: Antibacterial activity against carbapenem resistant Pseudomonas aeruginosa clinical isolate 17-1 assessed as inhibition of bacterial growth incubated for 18 to 24 hrs by broth microdilution method; type: functional; settings: time 18-24 hrs
Pseudomonas aeruginosa [15] = assay: Antibacterial activity against Pseudomonas aeruginosa ATCC 27853 assessed as inhibition of bacterial growth incubated for 18 to 24 hrs by broth microdilution method; type: functional; settings: time 18-24 hrs
Acinetobacter baumannii [16] = assay: Antibacterial activity against carbapenem resistant Acinetobacter baumannii clinical isolate 19-8 assessed as inhibition of bacterial growth incubated for 18 to 24 hrs by broth microdilution method; type: functional; settings: time 18-24 hrs
Acinetobacter baumannii [17] = assay: Antibacterial activity against oxacillinase-27 producing Acinetobacter baumannii NCTC 13304 assessed as inhibition of bacterial growth incubated for 18 to 24 hrs by broth microdilution method; type: functional; settings: time 18-24 hrs
[18] = Cytotoxicity against human HK-2 cells assessed as inhibition of cell growth incubated for 72 hrs by CCK-8 assay; type: toxicity, cell-based
[19] = Selectivity index, ratio of IC50 for cytotoxicity against human HK-2 cells to MIC for antibacterial activity against Escherichia coli ATCC BAA-2523; type: toxicity, cell-based

Structure (SMILES)	MIC (Staphylococcus aureus [1]) [µg/mL]	MIC (Staphylococcus aureus [2]) [µg/mL]	MIC [3] [µg/mL]	MIC [4] [µg/mL]	MIC (Escherichia coli [5]) [µg/mL]	MIC (Escherichia coli [6]) [µg/mL]	MIC (Escherichia coli [7]) [µg/mL]	MIC (Escherichia coli [8]) [µg/mL]	MIC (Klebsiella pneumoniae [9]) [µg/mL]	MIC (Klebsiella pneumoniae [10]) [µg/mL]	MIC (Klebsiella pneumoniae [11]) [µg/mL]	MIC (Pseudomonas aeruginosa [12]) [µg/mL]	MIC (Pseudomonas aeruginosa [13]) [µg/mL]	MIC (Pseudomonas aeruginosa [14]) [µg/mL]	MIC (Pseudomonas aeruginosa [15]) [µg/mL]	MIC (Acinetobacter baumannii [16]) [µg/mL]	MIC (Acinetobacter baumannii [17]) [µg/mL]	IC50 at 72 h [18] [µg/mL]	selectivity ratio [19]
CCCCCCCCC(=O)N[C@H](CCN)C(=O)N[C@H]1CCNC(=O)[C@H](CC(C)C)NC(=O)[C@H](CCN)NC(=O)[C@H](CCN)NC(=O)[C@H](CC(C)C)NC(=O)[C@@H](CC(C)C)NC(=O)[C@H](CCN)NC1=O	> 64	> 64	4 (≈ 4.08 µM)	16 (≈ 16.3 µM)	16 (≈ 16.3 µM)	16 (≈ 16.3 µM)	32 (≈ 32.6 µM)	2 (≈ 2.04 µM)	16 (≈ 16.3 µM)	16 (≈ 16.3 µM)	2 (≈ 2.04 µM)	4 (≈ 4.08 µM)	4 (≈ 4.08 µM)	2 (≈ 2.04 µM)	1 (≈ 1.02 µM)	8 (≈ 8.16 µM)	8 (≈ 8.16 µM)	77.4 (≈ 79 µM)	4.8
CCCCCCCCCC(=O)N[C@H](CCN)C(=O)N[C@H]1CCNC(=O)[C@H]([C@@H](C)O)NC(=O)[C@H](CCN)NC(=O)[C@H](CCN)NC(=O)[C@H](CC(C)C)NC(=O)[C@@H](Cc2cccc(Cl)c2)NC(=O)[C@H](CCN)NC1=O	64 (≈ 60.9 µM)	32 (≈ 30.5 µM)	2 (≈ 1.9 µM)	2 (≈ 1.9 µM)	2 (≈ 1.9 µM)	4 (≈ 3.81 µM)	2 (≈ 1.9 µM)	1 (≈ 0.952 µM)	4 (≈ 3.81 µM)	4 (≈ 3.81 µM)	2 (≈ 1.9 µM)	2 (≈ 1.9 µM)	2 (≈ 1.9 µM)	32 (≈ 30.5 µM)	32 (≈ 30.5 µM)	16 (≈ 15.2 µM)	16 (≈ 15.2 µM)	42.5 (≈ 40.4 µM)	21.3
CCCCCCCCCC(=O)N[C@H](CCN)C(=O)N[C@H]1CCNC(=O)[C@H](CC(C)C)NC(=O)[C@H](CCN)NC(=O)[C@H](CCN)NC(=O)[C@H](Cc2ccccc2)NC(=O)[C@@H](Cc2ccccc2)NC(=O)[C@H](CCN)NC1=O	32 (≈ 30.1 µM)	8 (≈ 7.53 µM)	1 (≈ 0.941 µM)	1 (≈ 0.941 µM)	8 (≈ 7.53 µM)	8 (≈ 7.53 µM)	8 (≈ 7.53 µM)	2 (≈ 1.88 µM)	8 (≈ 7.53 µM)	16 (≈ 15.1 µM)	16 (≈ 15.1 µM)	4 (≈ 3.77 µM)	4 (≈ 3.77 µM)	8 (≈ 7.53 µM)	8 (≈ 7.53 µM)	16 (≈ 15.1 µM)	16 (≈ 15.1 µM)	32.2 (≈ 30.3 µM)	4
CCCCCCCCCC(=O)N[C@H](CCN)C(=O)N[C@H]1CCCNC(=O)[C@H]([C@@H](C)O)NC(=O)[C@H](CCN)NC(=O)[C@H](CCN)NC(=O)[C@H](CC(C)C)NC(=O)[C@@H](CC(C)C)NC(=O)[C@H](CCN)NC1=O	> 64	> 64	4 (≈ 4.01 µM)	32 (≈ 32.1 µM)	16 (≈ 16.1 µM)	32 (≈ 32.1 µM)	16 (≈ 16.1 µM)	16 (≈ 16.1 µM)	16 (≈ 16.1 µM)	64 (≈ 64.2 µM)	16 (≈ 16.1 µM)	4 (≈ 4.01 µM)	2 (≈ 2.01 µM)	4 (≈ 4.01 µM)	4 (≈ 4.01 µM)	> 64	> 64	158 (≈ 159 µM)	9.9
CCCCCCCCCC(=O)N[C@H](CCN)C(=O)N[C@H]1CCNC(=O)[C@H]([C@@H](C)O)NC(=O)[C@H](CCN)NC(=O)[C@H](CCN)NC(=O)[C@H](CC(C)C)NC(=O)[C@@H](Cc2ccc(N)cc2)NC(=O)[C@H](CCN)NC1=O	> 64	> 64	16 (≈ 15.5 µM)	32 (≈ 31 µM)	64 (≈ 62.1 µM)	> 64	64 (≈ 62.1 µM)	64 (≈ 62.1 µM)	> 64	> 64	> 64	> 64	> 64	> 64	> 64	> 64	> 64	228 (≈ 221 µM)	3.6
CCCCCCCCCC(=O)N[C@H](CCN)C(=O)N[C@H]1CCNC(=O)[C@H]([C@@H](C)O)NC(=O)[C@H](CCN)NC(=O)[C@H](CCN)NC(=O)[C@H](CCCCCCCC)NC(=O)[C@@H](CC(C)C)NC(=O)[C@H](CCN)NC1=O	8 (≈ 7.7 µM)	8 (≈ 7.7 µM)	1 (≈ 0.963 µM)	2 (≈ 1.93 µM)	1 (≈ 0.963 µM)	2 (≈ 1.93 µM)	1 (≈ 0.963 µM)	1 (≈ 0.963 µM)	2 (≈ 1.93 µM)	2 (≈ 1.93 µM)	2 (≈ 1.93 µM)	2 (≈ 1.93 µM)	2 (≈ 1.93 µM)	4 (≈ 3.85 µM)	2 (≈ 1.93 µM)	8 (≈ 7.7 µM)	4 (≈ 3.85 µM)	9.1 (≈ 8.76 µM)	9.1
